Test results from ChEMBL document CHEMBL1201862, “PubChem BioAssay data set” (2004).
Calls of active or inactive are those of the source.

Columns and labels:
Assay type in all cases: functional
[1] = molecular target: T1, Orexin/Hypocretin receptor type 1 (Homo sapiens, UniProt O43613); test: Homogeneous Time Resolved Fluorescence (HTRF)-based cell-based high throughput dose response assay for antagonists of the orexin 1 receptor (OX1R; HCRTR1). [Related pubchem assays (depositor defined):AID434989, AID435008, AID463079, AID485270, AID492963, AID492964, AID492965, AID493232, AID504717, AID504718]
T1 sequence (O43613 whole entry): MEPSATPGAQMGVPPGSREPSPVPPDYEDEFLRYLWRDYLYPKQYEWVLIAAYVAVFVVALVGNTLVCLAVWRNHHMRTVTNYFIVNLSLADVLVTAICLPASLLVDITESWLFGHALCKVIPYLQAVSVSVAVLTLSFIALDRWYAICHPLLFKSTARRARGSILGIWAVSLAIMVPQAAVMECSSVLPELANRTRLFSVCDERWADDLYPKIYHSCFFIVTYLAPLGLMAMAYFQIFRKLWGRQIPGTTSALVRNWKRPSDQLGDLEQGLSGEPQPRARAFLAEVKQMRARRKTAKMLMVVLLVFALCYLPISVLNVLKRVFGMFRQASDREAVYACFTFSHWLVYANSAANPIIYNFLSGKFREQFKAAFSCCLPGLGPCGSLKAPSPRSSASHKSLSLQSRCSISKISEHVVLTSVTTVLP

[2] = (§1) Counterscreen for antagonists of the orexin 1 receptor (OX1R; HCRTR1): Fluorescence-based cell-based high throughput dose response assay to identify antagonists of the parental CHO cell line. [Related pubchem assays (depositor defined):AID434989, AID435008, AID463079, AID485270, AID492963, AID492964, AID492965, AID493232, AID504699, AID504701]
Orexin receptor type 2 [3] = molecular target: T2, Orexin receptor type 2 (Homo sapiens, UniProt O43614); test: Counterscreen assay for antagonists of the orexin 1 receptor (OX1R; HCRTR1): Homogeneous Time Resolved Fluorescence (HTRF)-based cell-based dose response assay for antagonists of the orexin 2 receptor (OX2R; HCRTR2), run by assay provider.
T2 sequence (O43614 whole entry): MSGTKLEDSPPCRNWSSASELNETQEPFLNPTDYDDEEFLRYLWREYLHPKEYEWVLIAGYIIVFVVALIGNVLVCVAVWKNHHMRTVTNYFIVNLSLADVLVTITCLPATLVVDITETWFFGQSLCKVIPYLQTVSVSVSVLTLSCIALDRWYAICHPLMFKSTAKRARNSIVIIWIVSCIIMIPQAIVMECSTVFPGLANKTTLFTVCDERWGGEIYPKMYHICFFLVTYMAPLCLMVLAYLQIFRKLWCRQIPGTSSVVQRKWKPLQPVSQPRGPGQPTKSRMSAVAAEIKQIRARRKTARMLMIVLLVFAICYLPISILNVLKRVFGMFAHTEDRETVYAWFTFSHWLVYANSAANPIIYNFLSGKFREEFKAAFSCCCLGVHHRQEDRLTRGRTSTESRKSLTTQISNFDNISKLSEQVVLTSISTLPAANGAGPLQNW

[4] = molecular target: T1, Orexin/Hypocretin receptor type 1; test: Fluorescence-based cell-based high throughput dose response assay for antagonists of the orexin 1 receptor (OX1R; HCRTR1). [Related pubchem assays (depositor defined):AID434989, AID435008, AID463079, AID485270, AID492963, AID492964, AID492965, AID493232, AID504717, AID504718]
Orexin receptor type 2 [5] = molecular target: T2, Orexin receptor type 2; test: Counterscreen assay for antagonists of the orexin 1 receptor (OX1R; HCRTR1): Fluorescence-based cell-based dose response assay for antagonists of the orexin 2 receptor (OX2R; HCRTR2), run by assay provider.
CHO-K1 = test: as §1, with “Homogeneous time resolved fluorescence (HTRF)-based” for “Fluorescence-based”, “cell-based” for “cell-based high throughput”, “CHO-K1” for “CHO”; conditions: Cricetulus griseus
[6] = molecular target: DNA (cytosine-5)-methyltransferase 1 (Homo sapiens, UniProt P26358); test: inhibition of DNA methylation by DNMT1 – biochemical, fluorescent molecular beacon, confirmation (AID 602386)
[7] = molecular target: Mitochondrial peptide methionine sulfoxide reductase (Bos taurus, UniProt P54149); test: Absorbance-based biochemical high throughput dose response assay for activators of Methionine sulfoxide reductase A (MsrA).
[8] = molecular target: T3, Sentrin-specific protease 8 (Homo sapiens, UniProt Q96LD8); test: inhibition of sentrin protease 8 – biochemical, luminescence, set 2, SAR follow-up (AID 588601)
T3 sequence (Q96LD8 whole entry): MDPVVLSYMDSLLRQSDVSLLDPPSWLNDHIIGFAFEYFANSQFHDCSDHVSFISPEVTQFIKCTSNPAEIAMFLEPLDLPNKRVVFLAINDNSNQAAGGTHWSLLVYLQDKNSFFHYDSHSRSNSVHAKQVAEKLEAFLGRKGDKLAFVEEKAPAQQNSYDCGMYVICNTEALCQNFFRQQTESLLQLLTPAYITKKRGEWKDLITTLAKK

Caspase-3 = molecular target: T4, Caspase-3 (Homo sapiens, UniProt P42574); test: inhibition of recombinant caspase-3 activity – biochemical, luminescence, set 2, selectivity assay for SENP protease inhibitor project, SAR follow-up (AID 588599)
T4 sequence (P42574 whole entry): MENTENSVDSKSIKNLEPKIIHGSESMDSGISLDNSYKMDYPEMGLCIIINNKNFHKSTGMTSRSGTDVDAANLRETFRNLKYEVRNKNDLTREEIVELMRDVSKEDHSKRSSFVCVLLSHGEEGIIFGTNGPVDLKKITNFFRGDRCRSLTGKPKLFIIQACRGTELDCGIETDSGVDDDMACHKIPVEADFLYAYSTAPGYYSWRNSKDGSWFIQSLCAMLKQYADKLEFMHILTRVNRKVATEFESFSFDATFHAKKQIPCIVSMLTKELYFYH

[9] = molecular target: T5, Sentrin-specific protease 6 (Homo sapiens, UniProt Q9GZR1); test: inhibition of human SENP6 catalytic domain – biochemical, luminescence, set 2, SAR follow-up (AID 588598)
T5 sequence (Q9GZR1 whole entry): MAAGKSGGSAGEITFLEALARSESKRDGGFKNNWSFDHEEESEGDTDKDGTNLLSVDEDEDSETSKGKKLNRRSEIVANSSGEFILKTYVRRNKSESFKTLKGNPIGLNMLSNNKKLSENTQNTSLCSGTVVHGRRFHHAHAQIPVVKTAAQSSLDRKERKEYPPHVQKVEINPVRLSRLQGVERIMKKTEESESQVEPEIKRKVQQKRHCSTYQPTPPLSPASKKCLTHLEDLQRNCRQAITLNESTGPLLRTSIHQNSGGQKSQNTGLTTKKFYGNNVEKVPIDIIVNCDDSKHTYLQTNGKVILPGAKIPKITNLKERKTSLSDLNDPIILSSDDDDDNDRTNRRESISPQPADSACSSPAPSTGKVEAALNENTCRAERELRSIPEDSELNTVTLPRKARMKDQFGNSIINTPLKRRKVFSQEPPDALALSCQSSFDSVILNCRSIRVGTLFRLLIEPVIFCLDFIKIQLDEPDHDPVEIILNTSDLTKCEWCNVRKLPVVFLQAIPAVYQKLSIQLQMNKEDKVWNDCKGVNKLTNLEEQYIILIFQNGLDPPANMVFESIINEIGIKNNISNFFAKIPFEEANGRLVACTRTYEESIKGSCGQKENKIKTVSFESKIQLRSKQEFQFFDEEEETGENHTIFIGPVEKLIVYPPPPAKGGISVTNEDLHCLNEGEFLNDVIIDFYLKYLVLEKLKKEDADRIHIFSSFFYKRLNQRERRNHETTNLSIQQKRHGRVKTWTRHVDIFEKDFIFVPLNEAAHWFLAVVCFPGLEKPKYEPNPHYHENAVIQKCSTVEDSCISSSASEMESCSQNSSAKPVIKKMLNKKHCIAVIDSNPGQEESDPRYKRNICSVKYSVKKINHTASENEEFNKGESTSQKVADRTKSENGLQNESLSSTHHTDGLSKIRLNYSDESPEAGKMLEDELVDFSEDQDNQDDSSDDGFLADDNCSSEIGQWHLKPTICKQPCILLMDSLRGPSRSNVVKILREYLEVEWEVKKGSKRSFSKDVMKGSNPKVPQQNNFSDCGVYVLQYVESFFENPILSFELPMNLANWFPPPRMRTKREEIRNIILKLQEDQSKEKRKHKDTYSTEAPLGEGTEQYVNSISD

[10] = molecular target: T6, Sentrin-specific protease 7 (Homo sapiens, UniProt Q9BQF6); test: inhibition of human SENP7 cleavage activity – biochemical, luminescence, set 2, SAR follow-up (AID 588600)
T6 sequence (Q9BQF6 whole entry): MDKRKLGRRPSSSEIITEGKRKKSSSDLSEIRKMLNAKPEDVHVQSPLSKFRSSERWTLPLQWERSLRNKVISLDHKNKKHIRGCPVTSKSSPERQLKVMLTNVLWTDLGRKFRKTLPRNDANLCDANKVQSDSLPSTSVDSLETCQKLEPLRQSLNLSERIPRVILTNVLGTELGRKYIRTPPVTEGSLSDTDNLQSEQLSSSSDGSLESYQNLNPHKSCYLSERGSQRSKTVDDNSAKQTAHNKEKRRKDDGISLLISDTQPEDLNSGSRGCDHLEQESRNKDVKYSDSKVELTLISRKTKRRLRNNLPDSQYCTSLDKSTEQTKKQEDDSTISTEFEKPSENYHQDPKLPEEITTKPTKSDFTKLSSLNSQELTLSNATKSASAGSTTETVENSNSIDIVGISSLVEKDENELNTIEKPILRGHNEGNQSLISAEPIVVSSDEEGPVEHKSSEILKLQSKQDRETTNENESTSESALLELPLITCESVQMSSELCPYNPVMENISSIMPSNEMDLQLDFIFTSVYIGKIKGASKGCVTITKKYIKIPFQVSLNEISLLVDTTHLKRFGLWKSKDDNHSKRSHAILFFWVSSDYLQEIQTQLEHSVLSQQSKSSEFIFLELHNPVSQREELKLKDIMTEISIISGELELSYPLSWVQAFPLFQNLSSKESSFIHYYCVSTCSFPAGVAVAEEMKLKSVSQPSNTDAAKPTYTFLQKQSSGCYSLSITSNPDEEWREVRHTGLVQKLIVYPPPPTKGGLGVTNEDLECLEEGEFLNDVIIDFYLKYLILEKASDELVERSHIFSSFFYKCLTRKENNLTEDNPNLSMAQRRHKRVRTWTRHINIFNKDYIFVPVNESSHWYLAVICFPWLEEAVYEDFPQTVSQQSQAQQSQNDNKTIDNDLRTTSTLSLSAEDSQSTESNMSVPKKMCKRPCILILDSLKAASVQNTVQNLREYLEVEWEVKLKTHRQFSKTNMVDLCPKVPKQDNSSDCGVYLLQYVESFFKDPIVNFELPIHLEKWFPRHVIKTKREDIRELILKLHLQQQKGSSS

[11] = molecular target: Melanin-concentrating hormone receptor 1 (Homo sapiens, UniProt Q99705); test: Late-stage fluorescence-based counterscreen for antagonists of the G-protein coupled receptor 7 (GPR7): cell-based dose response assay to identify antagonists of the melanin-concentrating hormone receptor 1 (MCHR1) Set 6.
[12] = molecular target: T7, Neuropeptides B/W receptor type 1 (Homo sapiens, UniProt P48145); test: human NPBW1 receptor blockade, IC50 – cell-based, fluorescence, dose response, set 6, late-stage follow-up (AID 588583)
T7 sequence (P48145 whole entry): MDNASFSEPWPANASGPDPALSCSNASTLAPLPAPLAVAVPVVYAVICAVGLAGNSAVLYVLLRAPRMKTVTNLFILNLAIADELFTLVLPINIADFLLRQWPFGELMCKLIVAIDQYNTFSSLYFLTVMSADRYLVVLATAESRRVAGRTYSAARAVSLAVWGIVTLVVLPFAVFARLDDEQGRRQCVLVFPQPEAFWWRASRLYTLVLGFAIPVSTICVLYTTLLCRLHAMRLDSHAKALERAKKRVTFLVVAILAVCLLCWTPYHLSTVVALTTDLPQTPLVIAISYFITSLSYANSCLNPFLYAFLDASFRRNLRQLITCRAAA

Aurora kinase A = Aurora kinase A (Homo sapiens, UniProt O14965);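 further: value from the Navigating the Kinome kinase panel profiling, panel entry STK6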
Aurora kinase B = Aurora kinase B (Homo sapiens, UniProt Q96GD4)
Aurora kinase B, sequence (Q96GD4 whole entry): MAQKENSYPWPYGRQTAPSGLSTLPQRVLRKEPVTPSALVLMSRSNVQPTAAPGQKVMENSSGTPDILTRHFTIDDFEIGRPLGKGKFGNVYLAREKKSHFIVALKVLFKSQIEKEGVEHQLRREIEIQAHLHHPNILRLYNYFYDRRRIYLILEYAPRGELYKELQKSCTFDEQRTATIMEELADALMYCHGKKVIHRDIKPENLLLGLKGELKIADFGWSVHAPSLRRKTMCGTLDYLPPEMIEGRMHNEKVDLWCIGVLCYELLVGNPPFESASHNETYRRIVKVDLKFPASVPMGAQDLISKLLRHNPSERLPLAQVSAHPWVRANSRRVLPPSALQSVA

Melanin-concentrating hormone receptor 1, sequence (Q99705 whole entry): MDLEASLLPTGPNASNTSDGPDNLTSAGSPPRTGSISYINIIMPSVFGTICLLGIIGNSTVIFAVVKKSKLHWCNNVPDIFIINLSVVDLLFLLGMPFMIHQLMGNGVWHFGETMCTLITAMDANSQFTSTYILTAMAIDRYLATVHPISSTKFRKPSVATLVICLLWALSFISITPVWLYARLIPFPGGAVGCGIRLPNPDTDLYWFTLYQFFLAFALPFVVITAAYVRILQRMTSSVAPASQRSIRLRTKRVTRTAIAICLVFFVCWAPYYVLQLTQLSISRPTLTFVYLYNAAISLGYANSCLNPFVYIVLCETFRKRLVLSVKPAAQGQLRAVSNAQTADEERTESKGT
Mitochondrial peptide methionine sulfoxide reductase, sequence (P54149 whole entry): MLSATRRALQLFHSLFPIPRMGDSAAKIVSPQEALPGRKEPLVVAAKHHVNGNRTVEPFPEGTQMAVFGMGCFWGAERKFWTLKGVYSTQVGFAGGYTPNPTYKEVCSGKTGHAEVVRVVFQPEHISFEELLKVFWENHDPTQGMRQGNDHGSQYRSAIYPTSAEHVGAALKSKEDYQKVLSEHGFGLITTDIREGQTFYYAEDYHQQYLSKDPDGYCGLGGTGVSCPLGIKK
DNA (cytosine-5)-methyltransferase 1, sequence (P26358 whole entry): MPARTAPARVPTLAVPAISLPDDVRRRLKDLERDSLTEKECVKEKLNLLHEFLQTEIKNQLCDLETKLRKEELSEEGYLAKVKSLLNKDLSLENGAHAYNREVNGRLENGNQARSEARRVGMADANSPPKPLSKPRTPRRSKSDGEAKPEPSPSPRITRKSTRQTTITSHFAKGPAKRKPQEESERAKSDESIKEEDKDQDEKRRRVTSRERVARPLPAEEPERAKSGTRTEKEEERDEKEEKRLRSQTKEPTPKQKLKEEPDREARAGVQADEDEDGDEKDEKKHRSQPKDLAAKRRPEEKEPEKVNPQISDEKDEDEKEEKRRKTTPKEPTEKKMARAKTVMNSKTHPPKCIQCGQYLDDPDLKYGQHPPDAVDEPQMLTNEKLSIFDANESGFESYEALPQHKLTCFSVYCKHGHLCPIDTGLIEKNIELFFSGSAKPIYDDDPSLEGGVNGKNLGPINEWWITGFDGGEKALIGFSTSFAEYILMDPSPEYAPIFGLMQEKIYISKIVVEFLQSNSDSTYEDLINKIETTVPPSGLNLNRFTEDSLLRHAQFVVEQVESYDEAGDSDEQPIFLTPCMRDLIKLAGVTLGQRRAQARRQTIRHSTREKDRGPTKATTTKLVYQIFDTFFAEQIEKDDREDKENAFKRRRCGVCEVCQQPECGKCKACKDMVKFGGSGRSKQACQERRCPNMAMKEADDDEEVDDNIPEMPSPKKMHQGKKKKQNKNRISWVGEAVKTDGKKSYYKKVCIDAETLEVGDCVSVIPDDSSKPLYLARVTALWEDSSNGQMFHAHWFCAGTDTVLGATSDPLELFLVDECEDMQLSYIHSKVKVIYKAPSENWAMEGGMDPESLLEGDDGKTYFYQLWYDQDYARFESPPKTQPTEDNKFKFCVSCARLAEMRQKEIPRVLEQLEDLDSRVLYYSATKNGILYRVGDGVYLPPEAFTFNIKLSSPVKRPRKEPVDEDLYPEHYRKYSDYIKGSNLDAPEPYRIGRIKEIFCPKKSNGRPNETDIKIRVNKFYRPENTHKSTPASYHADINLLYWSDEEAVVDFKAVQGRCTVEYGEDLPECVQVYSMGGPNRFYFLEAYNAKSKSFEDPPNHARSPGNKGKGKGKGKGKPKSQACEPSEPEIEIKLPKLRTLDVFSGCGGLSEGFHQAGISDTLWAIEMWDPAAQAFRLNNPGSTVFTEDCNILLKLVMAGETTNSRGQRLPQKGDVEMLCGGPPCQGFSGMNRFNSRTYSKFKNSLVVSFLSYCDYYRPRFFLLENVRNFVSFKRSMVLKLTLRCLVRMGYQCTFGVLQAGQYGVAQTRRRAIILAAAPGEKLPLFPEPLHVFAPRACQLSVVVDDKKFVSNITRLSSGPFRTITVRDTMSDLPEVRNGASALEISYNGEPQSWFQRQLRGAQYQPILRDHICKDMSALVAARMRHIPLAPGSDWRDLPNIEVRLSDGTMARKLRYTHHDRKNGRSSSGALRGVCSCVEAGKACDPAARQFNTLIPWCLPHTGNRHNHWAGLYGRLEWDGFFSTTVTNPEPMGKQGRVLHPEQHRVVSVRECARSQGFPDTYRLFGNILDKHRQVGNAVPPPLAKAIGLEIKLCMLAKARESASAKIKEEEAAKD
Aurora kinase A, sequence (O14965 whole entry): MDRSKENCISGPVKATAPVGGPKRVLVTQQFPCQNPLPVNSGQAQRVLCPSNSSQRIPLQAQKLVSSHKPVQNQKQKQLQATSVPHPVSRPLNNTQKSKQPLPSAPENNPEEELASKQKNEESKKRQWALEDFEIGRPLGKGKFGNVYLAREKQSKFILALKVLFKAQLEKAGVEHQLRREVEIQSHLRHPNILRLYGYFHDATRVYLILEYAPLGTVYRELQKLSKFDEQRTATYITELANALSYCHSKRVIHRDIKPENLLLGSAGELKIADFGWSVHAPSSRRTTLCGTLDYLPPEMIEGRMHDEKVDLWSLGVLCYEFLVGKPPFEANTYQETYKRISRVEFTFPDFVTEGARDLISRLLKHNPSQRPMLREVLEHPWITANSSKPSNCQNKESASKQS

## COc1ccc(-c2cc3nc(-c4ccccc4)cc(N4CCC5(CC4)OCCO5)n3n2)cc1
[1]
  IC50: 5.7 µM (active)
[2]
  IC50: > 49.8 µM (inactive)
Orexin receptor type 2 [3]
  IC50: > 50 µM (inactive)
[4]
  IC50: 23.6 µM (inactive)
Orexin receptor type 2 [5]
  IC50: 10.8 µM (inactive)
CHO-K1
  IC50: > 66.2 µM (inactive)

## O=C1C(=O)c2c(ccc3ccccc23)-c2ccccc21
[6]
  IC50: 1.34 µM (active)
[7]
  EC50: > 104 µM (inactive)

## CC1CN(C(=O)C(=O)c2c[nH]c3ccccc23)CC(C)O1 (configuration not stated)
[8]
  IC50: > 99 µM (inactive)
Caspase-3
  IC50: > 99 µM (inactive)
[9]
  IC50: > 99 µM (inactive)
[10]
  IC50: > 99 µM (inactive)

## COCc1c(C(=O)Nc2nc3ccc(C)cc3s2)sc2cccc(F)c12
[8]
  IC50: > 99 µM (inactive)
Caspase-3
  IC50: > 99 µM (inactive)
[9]
  IC50: > 99 µM (inactive)
[10]
  IC50: > 99 µM (inactive)

## Cc1ccccc1Cn1ncc(Cl)c(C(C#N)c2ccccc2)c1=O (configuration not stated)
[11]
  IC50: 0.484 µM (active)
[12]
  IC50: 0.484 µM (active)

## N#CC(c1ccc(Cl)cc1F)c1c(Cl)cnn(Cc2cccc3ccccc23)c1=O (configuration not stated)
[11]
  IC50: 0.594 µM (active)
[12]
  IC50: 0.594 µM (active)

## Cc1oc2ncnc(N)c2c1-c1ccc(NC(=O)Nc2cc(C(F)(F)F)ccc2F)cc1
Aurora kinase A
  Ki: 0.126 µM (active)
Aurora kinase B
  Ki: 0.00794 µM (active)
